We go through five compounds from patent publication US11208387B2, “Macrocyclic broad spectrum antibiotics” (Genentech, Inc., priority 2019, dated 2021).

Converted amounts (≈) assume the structure as drawn. Where two headings read alike, the source gives them in different places.

What all share (assay): Serum MIC, broth micro-dilution
Holding throughout (format): cell-based
Background: Broth dilution looks for growth in wells or tubes with falling amounts of substance.

Assay [1] deals with Acinetobacter baumannii ATCC 17978. The settings on record: Acinetobacter baumannii, ATCC17978. The procedure: (§1) In vitro antimicrobial activity of each compound was determined by measuring minimal inhibitor concentrations (MICs) using the broth micro-dilution technique as approved by the Clinical and Laboratory Standards Institute (CLSI) (Methods for Dilution Antimicrobial Susceptibility Tests for Bacteria that Grow Aerobically; Approved Standard—Eighth Edition. CLSI document M07-A8. Wayne, Pa.: Clinical and Laboratory Standards; 2009). Antibacterial activity was measure against Escherichia coli strain ATCC 25922 (E. coli), Klebsiella pneumoniae ATCC 700603 (K. pneumoniae), Acinetobacter baumannii ATCC 17978 (A. baumannii), and Pseudomonas aeruginosa PA01 (P. aeruginosa), each of which is representative of a clinically relevant Gram-negative species. Cells were inoculated onto plates of Mueller Hinton Agar and grown at 37° C. for 16-18 hours. Inocula suspensions were prepared by scraping cells into 1 mL of testing media (Mueller Hinton II cation adjusted Broth) and diluting to a final OD 600 nm of 0.01.
(§2) Test compounds were prepared in DMSO at a concentration of […]. The compounds were tested under several different dilution formats. In protocol 1, the compound stocks were diluted into testing media at a concentration of 64 μg/ml and serial 2-fold dilutions were made in the same media, in 96-well U bottom microtiter dishes, for a total of 10 compound concentrations. In protocol 2, the compound stocks were diluted into testing media at a concentration of 4 μg/mL and serial 2-fold dilutions were made in the same media, in 96-well U bottom microtiter dishes, for a total of 10 compound concentrations. In protocol 3, compound stocks were diluted into testing media at a concentration of 0.5 μg/mL, with serial 2-fold dilutions conducted as described above. In protocol 4, compound stocks were diluted into testing media at a concentration of 0.13 μg/mL, with serial 2-fold dilutions conducted as described above. Inocula suspensions were added to the 2-fold serial dilutions of test compounds to a final density of OD 600 nm of 0.0005 and incubated at 35° C. for 22 hours. […] To assess antimicrobial activity in the presence of plasma proteins, MICs were also determined in growth media supplemented with 50% serum. Bacterial inocula and test compound dilution plates were prepared using the same protocol as described above for the standard MICs assay, with the exception that a mixture of 50% v/v Mueller Hinton II cation adjusted Broth and 50% v/v mouse sterile filtered serum (Equitech-Bio) was used in place of 100% Mueller Hinton II cation adjusted Broth. The results are listed in Table 3 (MIC, IC50 values micromolar).

In assay [2] the test system is Pseudomonas aeruginosa PA01. As to conditions: Pseudomonas aeruginosa, PA01, read-out: P. aeruginosa 01 Serum MIC. The procedure: as §1, §2
The test system of assay [3] is Klebsiella pneumoniae ATCC 700603. As to conditions: Klebsiella pneumoniae, ATCC700603. As to the method: as §1, §2
Assay [4] has as its system Escherichia coli strain ATCC 25922. The settings on record: Escherichia coli, ATCC25922, read-out: E. coli 25922 Serum MIC. The procedure:
as §1, §2

The mark [5] stands for this setting: 50% v/v mouse serum in Mueller Hinton II cation adjusted Broth, 35° C., 22 hours, Table 4, read-out: A. baumanii 17978 Serum MIC.
[6] abbreviates: 50% v/v mouse serum in Mueller Hinton II cation adjusted Broth, 35° C., 22 hours, Table 5, read-out: Acinetobacter baumanii 17978 Serum MIC.
Where [7] appears, read: 50% v/v mouse serum in Mueller Hinton II cation adjusted Broth, 35° C., 22 hours, Table 4.
Where [8] appears, read: 50% v/v mouse serum in Mueller Hinton II cation adjusted Broth, 35° C., 22 hours, Table 4, read-out: K pneumoniae 700603 Serum MIC.
Setting [9] is: 50% v/v mouse serum, compounds of Table 1, Table 7, read-out: A. baumanii 17978 Serum MIC.
The mark [10] stands for this setting: 50% v/v mouse serum, compounds of Table 1, Table 7.
Where [11] appears, read: 50% v/v mouse serum, compounds of Table 1, Table 7, read-out: K. pneumoniae 700603 Serum MIC.

In general, MIC refers to the least concentration at which growth counts as inhibited. For `Cc1nc(-c2ccc(CC3CC3)cc2)nc(N)c1C(=O)N[C@@H](CNS(N)(=O)=O)C(=O)N(C)[C@@H]1C(=O)N[C@@H](C)C(=O)N[C@H](C(=O)O)Cc2ccc(OC[C@H](O)CN)c(c2)-c2cc1cc(OC[C@H](O)CN)c2O` [Example 34, (8S,11S,14S)-14-[[(2S)-2-[[4-amino-2-[4-(cyclopropyl-methyl)phenyl]-6-methyl-pyrimidine-5-carbonyl]amino]-3-(sulfamoylamino)-propanoyl]-methyl-amino]-3,17-bis[(2R)-3-amino-2-hydroxy-propoxy]-18-hydroxy-11-methyl-10,13-dioxo-9,12-diazatricyclo-[13.3.1.12,6]icosa-1(18),2(20),3,5,15(19), 16-hexaene-8-carboxylic acid], the MIC in assay [1] (setting [5]) worked out at 16 µM (≈ 16.1 µg/mL); in assay [1] (setting [6]) it was 16 µM (≈ 16.1 µg/mL); in assay [2] (setting [7]), 12 µM (≈ 12.1 µg/mL); in assay [3] (setting [8]) it was 0.75 µM (≈ 0.755 µg/mL); in assay [4] (setting [7]), 0.5 µM (≈ 0.503 µg/mL).
As to `Cc1nc(-c2ccc(C3(C)CC3)cc2)nc(N)c1C(=O)N[C@@H](CNS(N)(=O)=O)C(=O)N(C)[C@@H]1C(=O)N[C@@H](C)C(=O)N[C@H](C(=O)O)Cc2ccc(OC[C@H](O)CN)c(c2)-c2cc1cc(OC[C@H](O)CN)c2O` [Example 6, (8S,11S,14S)-18-hydroxy-11-methyl-14-[methyl-[(2S)-2-[[4-amino-6-methyl-2-[4-(1-methylcyclo-propyl)phenyl]-pyrimidine-5-carbonyl]amino]-3-(sulfamoylamino)-propanoyl]amino]-10,13-dioxo-3,17-bis[(2R)-3-amino-2-hydroxy-propoxy]-9,12-diazatricyclo-[13.3.1.12,6]icosa-1(18),2(20),3,5,15(19), 16-hexaene-8-carboxylic acid], the minimum inhibitory concentration (MIC) in assay [1] (setting [5]) was found to be 16 µM (≈ 16.1 µg/mL); in assay [1] (setting [6]) it was 16 µM (≈ 16.1 µg/mL); in assay [2] (setting [7]), 16 µM (≈ 16.1 µg/mL); in assay [3] (setting [8]), 0.75 µM (≈ 0.755 µg/mL); in assay [4] (setting [7]), 0.75 µM (≈ 0.755 µg/mL).
As to `Cc1nc(-c2ccc(OC(C)C)cc2)nc(C)c1C(=O)N[C@@H](CCN)C(=O)N(C)[C@@H]1C(=O)N[C@@H](C)C(=O)N[C@H](C(=O)O)Cc2ccc(O)c(c2)-c2cc1ccc2OCCN` (racemic) [Example 643], the MIC in assay [1] (setting [9]) is 73 µM (≈ 60.2 µg/mL); in assay [2] (setting [10]), 73 µM (≈ 60.2 µg/mL); in assay [3] (setting [11]), 4.6 µM (≈ 3.79 µg/mL); in assay [4] (setting [10]), 2.3 µM (≈ 1.9 µg/mL).
Take `CCCCc1ccc(-c2nc(C)c(C(=O)N[C@@H](CNS(N)(=O)=O)C(=O)N(C)[C@@H]3C(=O)N[C@@H](C)C(=O)N[C@H](C(=O)O)Cc4ccc(OC[C@H](O)CN)c(c4)-c4cc3cc(OC[C@H](O)CN)c4O)c(N)n2)cc1` [Example 36, (8S,11S,14S)-14-[[(2S)-2-[[4-amino-2-(4-butylphenyl)-6-methyl-pyrimidine-5-carbonyl]amino]-3-(sulfamoylamino)-propanoyl]-methyl-amino]-3,17-bis[(2R)-3-amino-2-hydroxy-propoxy]-18-hydroxy-11-methyl-10,13-dioxo-9,12-diazatri-cyclo[13.3.1.12,6]icosa-1(18),2(20),3,5,15(19), 16-hexaene-8-carboxylic acid]: the MIC is 16 µM (≈ 16.1 µg/mL) in assay [1] (setting [5]); 16 µM (≈ 16.1 µg/mL) in assay [1] (setting [6]); 16 µM (≈ 16.1 µg/mL) in assay [2] (setting [7]); 1 µM (≈ 1.01 µg/mL) in assay [3] (setting [8]); 0.75 µM (≈ 0.756 µg/mL) in assay [4] (setting [7]).
In the case of `CCCCCOc1ccc(-c2nc(C)c(C(=O)N[C@@H](CCN)C(=O)N(C)[C@@H]3C(=O)N[C@@H](C)C(=O)N[C@H](C(=O)O)Cc4ccc(OCCN)c(c4)-c4cc3ccc4OCCN)c(C)n2)cc1` (racemic) [Example 638], the MIC in assay [1] (setting [9]) came to 64 µM (≈ 57.3 µg/mL); in assay [2] (setting [10]), 64 µM (≈ 57.3 µg/mL); in assay [3] (setting [11]) it was 1 µM (≈ 0.896 µg/mL); in assay [4] (setting [10]) it was 0.75 µM (≈ 0.672 µg/mL).
